As usually defined, the IC50 is the concentration that inhibits the measured activity by half.

The target of one series is T1, HDAC7 (Homo sapiens, UniProt Q8WUI4).
T1 sequence (Q8WUI4 1-952): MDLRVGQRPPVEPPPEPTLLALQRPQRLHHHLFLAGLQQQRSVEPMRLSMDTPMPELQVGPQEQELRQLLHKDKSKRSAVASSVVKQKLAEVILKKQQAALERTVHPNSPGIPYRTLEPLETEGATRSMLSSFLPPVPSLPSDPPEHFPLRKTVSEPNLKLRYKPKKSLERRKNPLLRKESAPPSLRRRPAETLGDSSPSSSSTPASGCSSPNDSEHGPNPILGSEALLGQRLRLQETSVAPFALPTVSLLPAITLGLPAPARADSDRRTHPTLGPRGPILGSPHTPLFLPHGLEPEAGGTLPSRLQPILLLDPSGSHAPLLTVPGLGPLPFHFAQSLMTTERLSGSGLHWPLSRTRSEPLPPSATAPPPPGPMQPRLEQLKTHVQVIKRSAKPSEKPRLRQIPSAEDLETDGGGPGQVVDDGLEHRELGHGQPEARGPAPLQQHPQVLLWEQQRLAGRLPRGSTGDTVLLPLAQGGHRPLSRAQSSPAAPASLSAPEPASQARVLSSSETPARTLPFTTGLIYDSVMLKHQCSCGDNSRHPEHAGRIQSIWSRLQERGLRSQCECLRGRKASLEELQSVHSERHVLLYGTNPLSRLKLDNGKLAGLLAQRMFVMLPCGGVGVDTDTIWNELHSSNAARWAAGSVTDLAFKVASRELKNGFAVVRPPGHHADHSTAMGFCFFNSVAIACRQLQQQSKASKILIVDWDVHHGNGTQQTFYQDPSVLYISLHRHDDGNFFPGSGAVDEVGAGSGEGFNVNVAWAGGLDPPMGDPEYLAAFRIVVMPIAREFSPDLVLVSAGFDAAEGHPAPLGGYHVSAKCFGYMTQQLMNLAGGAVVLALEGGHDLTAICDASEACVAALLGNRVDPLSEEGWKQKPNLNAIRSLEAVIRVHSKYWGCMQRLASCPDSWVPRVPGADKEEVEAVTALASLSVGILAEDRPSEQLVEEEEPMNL
Put plainly: HDAC inhibition assay, HDAC7.

The target of another series is T2, HDAC6 (Homo sapiens, UniProt Q9UBN7).
T2 sequence (Q9UBN7 1-1215): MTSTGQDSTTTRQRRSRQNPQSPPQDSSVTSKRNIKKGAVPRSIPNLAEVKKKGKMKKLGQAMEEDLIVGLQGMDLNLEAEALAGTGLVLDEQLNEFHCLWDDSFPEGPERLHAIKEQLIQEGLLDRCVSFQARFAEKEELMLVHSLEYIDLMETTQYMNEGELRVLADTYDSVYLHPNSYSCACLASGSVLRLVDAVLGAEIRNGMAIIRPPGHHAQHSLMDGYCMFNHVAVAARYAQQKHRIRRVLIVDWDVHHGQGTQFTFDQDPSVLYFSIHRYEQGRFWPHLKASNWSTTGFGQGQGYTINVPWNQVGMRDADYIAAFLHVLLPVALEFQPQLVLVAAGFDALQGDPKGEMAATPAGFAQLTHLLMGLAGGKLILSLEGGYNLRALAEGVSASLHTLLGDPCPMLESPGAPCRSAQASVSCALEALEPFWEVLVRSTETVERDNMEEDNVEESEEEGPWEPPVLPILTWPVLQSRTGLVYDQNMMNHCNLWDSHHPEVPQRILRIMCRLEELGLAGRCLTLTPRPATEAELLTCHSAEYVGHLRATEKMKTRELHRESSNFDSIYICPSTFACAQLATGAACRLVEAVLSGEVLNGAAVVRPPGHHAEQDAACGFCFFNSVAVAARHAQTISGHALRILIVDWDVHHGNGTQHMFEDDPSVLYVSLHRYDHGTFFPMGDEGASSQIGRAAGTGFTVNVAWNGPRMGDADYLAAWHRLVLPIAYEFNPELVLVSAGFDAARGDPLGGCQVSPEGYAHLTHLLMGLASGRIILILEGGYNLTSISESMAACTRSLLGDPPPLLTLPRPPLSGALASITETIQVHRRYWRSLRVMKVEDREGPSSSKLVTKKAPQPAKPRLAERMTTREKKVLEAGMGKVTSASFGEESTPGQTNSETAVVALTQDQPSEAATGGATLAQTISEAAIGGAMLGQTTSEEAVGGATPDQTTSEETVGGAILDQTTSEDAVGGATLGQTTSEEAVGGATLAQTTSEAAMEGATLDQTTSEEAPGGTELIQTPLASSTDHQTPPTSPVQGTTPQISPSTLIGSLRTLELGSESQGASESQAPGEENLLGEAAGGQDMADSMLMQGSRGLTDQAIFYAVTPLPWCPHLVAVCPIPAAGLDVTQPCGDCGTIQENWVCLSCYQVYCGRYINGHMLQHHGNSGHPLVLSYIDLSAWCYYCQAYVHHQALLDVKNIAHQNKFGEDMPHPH
Description: HDAC inhibition assay, HDAC6.

A further series has as its system HeLa nuclear HDACs. Description: HDAC inhibition assay, HeLa nuclear extract (mixture of class I HDACs 1, 2, and 3). The note with it: read-out: IC50 HeLa nuclear HDACs, Boc-Lys-(AMC) substrate.
The next series concerns the target HDAC9 (Homo sapiens, UniProt Q9UKV0). Put plainly: HDAC inhibition assay, HDAC9.
The subject of a further series is SCC2095 cells. Put plainly: Cell viability (MTT) assay, SCC2095. It counts as cell-based. To be noted: 48 h, human oral cancer cells, read-out: IC50 of cytotoxicity SCC2095. How it is done: Human breast cancer MDA-MB-231 cells and gastric cancer SCM-1 cells were purchased from the American Type Culture Collection (Manasas, VA, USA). SCC2095 human oral cancer cells were kindly provided by Professor Susan R. Mallery (The Ohio State University).
To assess cell viability, cells were seeded in three replicates into 96-well plates at a density of 5×10^3/well for 24 h following incubation with compounds at the indicated concentrations. Then, cell viability was assessed with 3–(4,5-dimethylthiazol-2-yl)-2,5-diphenyltetrazolium bromide (MTT) solution (0.5 mg/mL) for 4h as described previously. After removing the medium, 200 µL of DMSO was added, and then the absorbance was measured at 570 nm using a plate reader (BMG LABTECH, Germany).

The next series deals with HDAC4 (Homo sapiens, UniProt P56524). Description: HDAC inhibition assay, HDAC4.
HDAC4, sequence (P56524 whole entry): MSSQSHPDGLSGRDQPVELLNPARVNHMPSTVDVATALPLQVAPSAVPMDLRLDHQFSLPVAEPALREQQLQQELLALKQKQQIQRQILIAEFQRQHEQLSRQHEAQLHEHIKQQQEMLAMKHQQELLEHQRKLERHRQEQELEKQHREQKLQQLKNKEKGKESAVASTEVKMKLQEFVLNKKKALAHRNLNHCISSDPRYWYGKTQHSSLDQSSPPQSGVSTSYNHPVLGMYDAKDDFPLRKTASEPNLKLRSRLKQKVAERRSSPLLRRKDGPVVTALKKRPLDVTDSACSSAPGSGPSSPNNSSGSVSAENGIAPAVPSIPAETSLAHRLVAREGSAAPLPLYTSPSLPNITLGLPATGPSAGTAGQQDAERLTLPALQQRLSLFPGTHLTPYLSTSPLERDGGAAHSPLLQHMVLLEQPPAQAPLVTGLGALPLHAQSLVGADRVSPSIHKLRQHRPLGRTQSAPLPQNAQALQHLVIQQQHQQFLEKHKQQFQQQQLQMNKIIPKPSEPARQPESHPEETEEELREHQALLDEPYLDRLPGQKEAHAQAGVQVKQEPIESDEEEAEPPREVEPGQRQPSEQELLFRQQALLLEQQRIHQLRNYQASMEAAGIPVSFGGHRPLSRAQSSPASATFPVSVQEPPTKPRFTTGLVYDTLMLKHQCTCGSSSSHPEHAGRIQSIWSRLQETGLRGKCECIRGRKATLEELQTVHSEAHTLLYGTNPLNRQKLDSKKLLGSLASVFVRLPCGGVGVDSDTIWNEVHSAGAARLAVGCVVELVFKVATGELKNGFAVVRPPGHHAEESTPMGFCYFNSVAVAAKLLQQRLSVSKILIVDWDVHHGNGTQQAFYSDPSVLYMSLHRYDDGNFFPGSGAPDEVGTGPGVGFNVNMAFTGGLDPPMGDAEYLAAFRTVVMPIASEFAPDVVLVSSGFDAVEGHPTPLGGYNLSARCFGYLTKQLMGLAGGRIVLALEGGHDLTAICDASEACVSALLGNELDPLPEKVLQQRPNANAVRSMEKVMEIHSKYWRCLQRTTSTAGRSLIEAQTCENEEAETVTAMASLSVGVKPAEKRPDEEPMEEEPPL

Where two headings read alike, the source gives them in different places.

HDAC9, sequence (Q9UKV0 whole entry): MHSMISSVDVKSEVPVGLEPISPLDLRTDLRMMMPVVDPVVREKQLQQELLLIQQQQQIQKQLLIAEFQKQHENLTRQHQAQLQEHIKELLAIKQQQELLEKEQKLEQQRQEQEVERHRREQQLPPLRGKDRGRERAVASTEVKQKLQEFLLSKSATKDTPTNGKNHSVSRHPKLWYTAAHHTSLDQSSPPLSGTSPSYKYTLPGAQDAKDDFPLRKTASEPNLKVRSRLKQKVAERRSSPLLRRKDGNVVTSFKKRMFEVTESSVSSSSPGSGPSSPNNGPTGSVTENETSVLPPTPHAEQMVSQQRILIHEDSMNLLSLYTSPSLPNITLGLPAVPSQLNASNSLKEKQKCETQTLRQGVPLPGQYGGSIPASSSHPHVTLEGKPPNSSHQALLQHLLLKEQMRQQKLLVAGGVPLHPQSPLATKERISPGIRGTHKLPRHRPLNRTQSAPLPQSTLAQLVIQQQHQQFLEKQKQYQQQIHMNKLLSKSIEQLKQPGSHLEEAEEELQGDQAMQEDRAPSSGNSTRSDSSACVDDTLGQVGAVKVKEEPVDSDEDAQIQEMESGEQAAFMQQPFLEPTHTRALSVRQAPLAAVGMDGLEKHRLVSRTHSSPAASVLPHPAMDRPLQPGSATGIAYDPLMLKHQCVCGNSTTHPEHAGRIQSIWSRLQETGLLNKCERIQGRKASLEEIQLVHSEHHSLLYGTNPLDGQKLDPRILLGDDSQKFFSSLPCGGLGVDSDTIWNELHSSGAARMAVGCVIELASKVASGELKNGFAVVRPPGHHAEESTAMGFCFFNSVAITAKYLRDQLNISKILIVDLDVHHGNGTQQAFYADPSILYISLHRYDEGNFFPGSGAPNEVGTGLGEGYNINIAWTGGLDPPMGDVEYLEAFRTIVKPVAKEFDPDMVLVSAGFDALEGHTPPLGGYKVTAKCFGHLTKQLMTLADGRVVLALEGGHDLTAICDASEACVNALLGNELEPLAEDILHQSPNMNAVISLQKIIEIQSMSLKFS

As to `O=C(NO)c1ccc(CN2c3ccccc3Sc3ccccc32)cc1-c1ccccc1` [Compound 7a, N-Hydroxy-4-[(10H-phenothiazin-10-yl)methyl]-2-phenylbenzamide], the IC50 is 0.71 ± 0.01 µM on HDAC7; 3.2 ± 0.77 µM on HDAC6; more than 40 µM in the series on HeLa nuclear HDACs; 0.42 ± 0.06 µM against HDAC9; 3.9 µM in the series on SCC2095 cells (Homo sapiens); 0.48 ± 0.04 µM on HDAC4.
For `O=C(NO)c1ccc(CN2c3ccccc3Sc3ccc(Cl)cc32)cc1-c1ccccc1` [Compound 7b, N-Hydroxy-4-[(2-chloro-10H-phenothiazin-10-yl)methyl]-2-phenylbenzamide], the IC50 is 0.23 ± 0.02 µM on HDAC7; 2.12 ± 0.37 µM on HDAC6; more than 40 µM in the series on HeLa nuclear HDACs; 0.2 ± 0.01 µM against HDAC9; 5 µM with SCC2095 cells (Homo sapiens); 0.28 ± 0.03 µM on HDAC4.
In the case of `O=C(NO)c1ccc(CN2c3ccccc3Sc3ccc(C(F)(F)F)cc32)cc1-c1ccccc1` [Compound 7c, N-Hydroxy-4-{[2-(trifluoromethyl)-10H-phenothiazin-10-yl]methyl}-2-phenylbenzamide], the IC50 against HDAC7 was 0.23 ± 0.05 µM; at HDAC6 it was 3.19 ± 0.11 µM; in the series with HeLa nuclear HDACs, more than 40 µM; at HDAC9, 0.27 ± 0.02 µM; in the series on SCC2095 cells (Homo sapiens), 6 µM; at HDAC4, 0.28 ± 0.04 µM.
`COc1ccc2c(c1)N(Cc1ccc(C(=O)NO)c(-c3ccccc3)c1)c1ccccc1S2` [Compound 7d, N-Hydroxy-4-[(2-methoxy-10H-phenothiazin-10-yl)methyl]-2-phenylbenzamide]: the IC50 against HDAC7 was 0.71 ± 0.12 µM; on HDAC6, 3.68 ± 0.41 µM; with HeLa nuclear HDACs, more than 40 µM; against HDAC9, 0.64 ± 0.08 µM; in the series with SCC2095 cells (Homo sapiens), 3.2 µM; on HDAC4, 0.8 ± 0.01 µM.
With `CC(=NO)c1ccc2c(c1)N(Cc1ccc(C(=O)NO)c(-c3ccccc3)c1)c1ccccc1S2` [Compound 7f, N-Hydroxy-4-{2-[1-(hydroxyimino)ethyl]-10H-phenothiazin-10-yl}methyl-2-phenylbenzamide], the IC50 against HDAC7 is 0.41 ± 0.02 µM; against HDAC6, 1.61 ± 0.09 µM; in the series with HeLa nuclear HDACs, more than 40 µM; against HDAC9, 0.32 ± 0.07 µM; in the series with SCC2095 cells (Homo sapiens), 4.6 µM; against HDAC4 it was 0.58 ± 0.07 µM.
In the case of `NC(=O)c1ccc2c(c1)N(Cc1ccc(C(=O)NO)c(-c3ccccc3)c1)c1ccccc1S2` [Compound 7h], the IC50 on HDAC7 is 0.16 ± 0.01 µM; on HDAC6, 0.75 ± 0.06 µM; in the series with HeLa nuclear HDACs, more than 40 µM; at HDAC9, 0.11 ± 0.01 µM; with SCC2095 cells (Homo sapiens) it was 3.6 µM; at HDAC4 it was 0.2 ± 0.05 µM. Further, the “HDAC6 inhibitory activity, fold less potent than LH4f” value on HDAC6 (versus LH4f) was 150 fold.
As to `O=C(NO)c1ccc(CNC23CC4CC(CC(C4)C2)C3)cc1-c1ccccc1` [Compound 7i, N-Hydroxy-4-[(adamantan-1-ylamino)methyl]-2-phenylbenzamide], the IC50 against HDAC7 is 12.9 ± 2.14 µM; at HDAC6 it was more than 40 µM; with HeLa nuclear HDACs, more than 40 µM; at HDAC9 it was 23.7 ± 4.14 µM; in the series with SCC2095 cells (Homo sapiens), more than 10 µM; on HDAC4, 18.7 ± 2.16 µM.
Take `O=C(NO)c1ccc(CN2CCCc3ccccc3C2)cc1-c1ccccc1` [Compound 7j, N-Hydroxy-4-[(1,3,4,5-tetrahydro-2H-benzo[c]azepin-2-yl)methyl]-2-phenylbenzamide]: the IC50 was 0.84 ± 0.03 µM against HDAC7; 18.22 ± 0.02 µM on HDAC6; more than 40 µM in the series on HeLa nuclear HDACs; 0.95 ± 0.05 µM at HDAC9; more than 10 µM in the series with SCC2095 cells (Homo sapiens); 0.91 ± 0.07 µM on HDAC4.
For the compound `COc1cc(-c2cc(CN3c4ccccc4Sc4ccc(C#N)cc43)ccc2C(=O)NO)cc(OC)c1OC` [Compound 19a, N-Hydroxy-4-[(2-cyano-10H-phenothiazin-10-yl)methyl]-2–(3,4,5-trimethoxyphenyl)benzamide], the IC50 is 17.9 ± 0.92 µM against HDAC7; 7.6 ± 0.36 µM against HDAC6; more than 40 µM in the series on HeLa nuclear HDACs; 18.6 ± 0.96 µM against HDAC9; 7.6 µM in the series with SCC2095 cells (Homo sapiens); more than 40 µM at HDAC4.
Turning to `COc1ccc(-c2cc(CN3c4ccccc4Sc4ccc(C#N)cc43)ccc2C(=O)NO)cc1` [Compound 19b, N-Hydroxy-4-[(2-cyano-10H-phenothiazin-10-yl)methyl]-2–(4-methoxyphenyl)benzamide], the IC50 at HDAC7 is 4.03 ± 0.16 µM; on HDAC6, 4.03 ± 0.25 µM; in the series with HeLa nuclear HDACs, more than 40 µM; against HDAC9, 5.34 ± 0.4 µM; in the series on SCC2095 cells (Homo sapiens), 1.8 µM; on HDAC4 it was 6.28 ± 0.13 µM.
For `N#Cc1ccc2c(c1)N(Cc1ccc(C(=O)NO)c(-c3ccc(F)cc3)c1)c1ccccc1S2` [Compound 19c, N-Hydroxy-4-[(2-cyano-10H-phenothiazin-10-yl)methyl]-2–(4-fluorophenyl)benzamide], the IC50 against HDAC7 is 0.54 ± 0.06 µM; against HDAC6, 4.22 ± 0.18 µM; in the series with HeLa nuclear HDACs, more than 40 µM; on HDAC9 it was 0.72 ± 0.03 µM; in the series with SCC2095 cells (Homo sapiens) it was 2.6 µM; on HDAC4, 1 ± 0.03 µM.
In the case of `COc1cc([C@@H]2c3cc4c(cc3[C@@H](O[C@@H]3O[C@@H]5CO[C@@H](C)O[C@H]5[C@H](O)[C@H]3O)[C@H]3COC(=O)[C@H]23)OCO4)cc(OC)c1O` [Etoposide, reference compound], the values for the IC50 in the series on SCC2095 cells (Homo sapiens) and in the series with SCC2095 cells were 3.3 ± 0.5 µM and 2.3 µM, respectively.
